Test results: the supplement of paper PMC10920090

Legend:
MDA-MB-231 [1] = experiment: drug sensitivity score (DSS), cytotoxicity CellTox Green; higher = more cytotoxic; extreme values may be limits of the assay; conditions: 72 h
MDA-MB-231 [2] = experiment: drug sensitivity score (DSS), cell viability CellTiter-Glo; higher = more sensitive; extreme values may be limits of the assay; conditions: 72 h
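Throughout, for drug sensitivity score (DSS), cytotoxicity CellTox Green: DSS summarises each dose–response curve by combining IC50, EC50, maximal inhibition and efficacy across drug concentrations.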

Structure (SMILES) | drug sensitivity score (MDA-MB-231 [1]; shRNA: shPPFIA1_1) | drug sensitivity score (MDA-MB-231 [1]; shRNA: shScramble) | drug sensitivity score (MDA-MB-231 [2]; shRNA: shPPFIA1_1) | drug sensitivity score (MDA-MB-231 [2]; shRNA: shScramble)
CC(C)(C)C[C@@H]1N[C@@H](C(=O)N[C@H]2CC[C@H](O)CC2)[C@H](c2cccc(Cl)c2F)[C@]12C(=O)Nc1cc(Cl)ccc12 | 0 DSS | 0.7 DSS | 0 DSS | 0 DSS
CC(C)Oc1ccc(C(=O)N[C@H](CNC(=O)CN(C)C)Cc2ccc(-c3cn4cccc([C@H](C)O)c4n3)cc2)cc1Cl | 10.3 DSS | 6.2 DSS | 3.5 DSS | 13.6 DSS
CCNC(=O)C[C@@H]1N=C(c2ccc(Cl)cc2)c2cc(OC)ccc2-n2c(C)nnc21 | 0 DSS | 0 DSS | 0 DSS | 6.2 DSS
CCc1cc(Nc2nccc(-c3c(-c4ccc(OC)c(C(=O)Nc5c(F)cccc5F)c4)nc4ccccn34)n2)c(OC)cc1N1CCC(N2CCN(S(C)(=O)=O)CC2)CC1 | 0 DSS | 0 DSS | 2.9 DSS | 2.4 DSS
CCc1cncnc1N1CCN(Cc2nc3ccc(C(F)(F)F)cc3[nH]2)CC1 | 0.6 DSS | 0 DSS | 0 DSS | 1.3 DSS
CCn1c(-c2nonc2N)nc2c(C#CC(C)(C)O)ncc(OC[C@H]3CCCNC3)c21 | 0 DSS | 0 DSS | 0 DSS | 0.2 DSS
CCn1c(-c2nonc2N)nc2cnc(Oc3cccc(NC(=O)c4ccc(OCCN5CCOCC5)cc4)c3)cc21 | 0 DSS | 0 DSS | 0 DSS | 1.5 DSS
CCn1c(C(=O)N(C2CC2)C2CC2)cc2c3c(ncn3C)c(Nc3cc(C)n(C)n3)nc21 | 0 DSS | 0 DSS | 0 DSS | 0 DSS
CCn1cc(-c2ccnc3[nH]c(-c4cccc(CN(C)C)c4)cc23)c(-c2ccc(NC(=O)N(C)C)cc2)n1 | 0 DSS | 6.4 DSS | 3.9 DSS | 0 DSS
CN(c1ccccc1CNc1nc(Nc2ccc3c(c2)CC(=O)N3)ncc1C(F)(F)F)S(C)(=O)=O | 4.1 DSS | 4 DSS | 2.3 DSS | 5.3 DSS
CN(c1ncccc1CNc1nc(Nc2ccc3c(c2)CC(=O)N3)ncc1C(F)(F)F)S(C)(=O)=O | 2.5 DSS | 1.8 DSS | 0.5 DSS | 5.8 DSS
CN1CCC(COc2cnc(-c3cccc(Cn4nc(-c5cccc(C#N)c5)ccc4=O)c3)nc2)CC1 | 0 DSS | 0 DSS | 0 DSS | 0 DSS
CNC(=O)c1ccc(C)c(-n2c(C)cc(OCc3ccc(F)cc3F)c(Br)c2=O)c1 | 0 DSS | 0 DSS | 0 DSS | 0 DSS
CNC(=O)c1ccccc1Nc1nc(Nc2ccc3c(c2OC)CCC[C@H](N2CCN(CCO)CC2)C3)ncc1Cl | 8.9 DSS | 0 DSS | 4 DSS | 6.1 DSS
CNc1nc(-c2ccc3c(N)n[nH]c3c2)cc(N2C[C@@H](C(=O)NC3CCCCC3)CC[C@H]2C)n1 | 0 DSS | 0 DSS | 0 DSS | 3.6 DSS
CNc1ncc2cc(-c3cc(NC(=O)NCCC(C)(C)C)c(F)cc3C)c(C)nc2n1 | 21.9 DSS | 19.4 DSS | 0.6 DSS | 14.8 DSS
COCC(=O)NC/C=C/c1ccc2ncnc(Nc3ccc(Oc4ccc(C)nc4)c(C)c3)c2c1 | 2.2 DSS | 0 DSS | 0 DSS | 0.3 DSS
COc1cc2ncnc(Oc3cccc(NC(=O)Nc4cc(C(C)(C)C(F)(F)F)on4)c3)c2cc1OC | 4 DSS | 7.8 DSS | 0 DSS | 7.7 DSS
COc1ccc(-c2cc3c(C)nc(N)nc3n([C@H]3CC[C@H](OCCO)CC3)c2=O)cn1 | 1.1 DSS | 2.4 DSS | 0 DSS | 6.2 DSS
COc1ccc(Cn2ccc3ccc(C(=O)NO)cc32)cc1 | 10.5 DSS | 0 DSS | 0 DSS | 0 DSS
CS(=O)(=O)N1CCc2c(-c3cnc(N)nc3)nc(N3CCOCC3)nc21 | 0 DSS | 0 DSS | 0 DSS | 7.7 DSS
C[C@@H](Oc1cc(-n2cnc3ccc(CN4CCN(C)CC4)cc32)sc1C(N)=O)c1ccccc1C(F)(F)F | 10 DSS | 7 DSS | 1.5 DSS | 5.2 DSS
C[C@@H](Oc1ccc2[nH]nc(/C=C/c3cnn(CCO)c3)c2c1)c1c(Cl)cncc1Cl | 0 DSS | 0 DSS | 0 DSS | 4.8 DSS

Structure (SMILES) | drug sensitivity score (MDA-MB-231 [1]; shRNA: shPPFIA1_1) | drug sensitivity score (MDA-MB-231 [1]; shRNA: shScramble) | drug sensitivity score (MDA-MB-231 [2]; shRNA: shPPFIA1_1) | drug sensitivity score (MDA-MB-231 [2]; shRNA: shScramble)
C[C@@H]1CN(CC(=O)Nc2ccc3c(c2)Cc2cccc(-c4cc(=O)cc(N5CCOCC5)o4)c2S3)C[C@H](C)O1 | 0.2 DSS | 0 DSS | 0 DSS | 3.6 DSS
C[C@@]1(C(=O)Nc2ccc(F)nc2)CCCN1c1nc(Nc2cc(C3CC3)n[nH]2)c2cccn2n1 | 0.8 DSS | 0 DSS | 0.2 DSS | 3.7 DSS
C[C@H]1Oc2cc(cnc2N)-c2c(nn(C)c2C#N)CN(C)C(=O)c2ccc(F)cc21 | 0 DSS | 0 DSS | 0 DSS | 0 DSS
Cc1c(Cn2c(C)nc3c(C(=O)O)cc(N4CCOCC4)cc32)cccc1C(F)(F)F | 0 DSS | 0 DSS | 3.6 DSS | 2.8 DSS
Cc1c(NC(=O)OC[C@@H]2COCCN2)cn2ncnc(Nc3ccc4c(cnn4Cc4cccc(F)c4)c3)c12 | 0 DSS | 0 DSS | 1.2 DSS | 2.4 DSS
Cc1ccc(C(=O)N(CCCN)[C@@H](c2oc3cc(Cl)ccc3c(=O)c2Cc2ccccc2)C(C)C)cc1 | 9.8 DSS | 8.7 DSS | 0 DSS | 6.3 DSS
Cc1ccc2nc(CN(CCN(Cc3nc4ccc(C)cc4[nH]3)Cc3nc4ccc(C)cc4[nH]3)Cc3nc4ccc(C)cc4[nH]3)[nH]c2c1 | 6.8 DSS | 1.9 DSS | 0.6 DSS | 2.6 DSS
Cc1cccc(CC(=O)N2CCc3c2ccc(-c2cn(C)c4ncnc(N)c24)c3F)n1 | 15 DSS | 0 DSS | 0 DSS | 0.3 DSS
Cc1nc(Nc2n[nH]c3c2CN(C(=O)N[C@H](CN(C)C)c2ccccc2)C3(C)C)c2sccc2n1 | 5.8 DSS | 4.8 DSS | 5.6 DSS | 10.1 DSS
Cc1ncc(Cl)cc1NCc1ccc(C(=O)N[C@@H](CC2CCCC2)C(=O)NC2CC2)s1 | 0 DSS | 0 DSS | 0 DSS | 0 DSS
Cc1nn(C)c(COc2ccc(N3CCN(S(=O)(=O)N(C)C)CC3)cc2)c1-c1cccc2c(CCCOc3cccc4ccccc34)c(C(=O)O)n(CCN3CCOCC3)c12 | 2.4 DSS | 7.1 DSS | 13.3 DSS | 4.2 DSS
Cn1cc(-c2ccc3nnc(C(F)(F)c4ccc5ncccc5c4)n3n2)cn1 | 0 DSS | 0 DSS | 0 DSS | 6.9 DSS
Cn1cc(C2=Nc3cc(NC(=O)C(N)C4CCCCC4)cc4c3C2=CNNC4=O)cn1 (configuration not stated) | 3 DSS | 0.8 DSS | 7.8 DSS | 9.4 DSS
N#Cc1ccc(COC[C@H]2O[C@@H](n3c(NCc4ccc(Cl)c(Cl)c4)nc4c(N)ncnc43)[C@H](O)[C@@H]2O)cc1 | 0 DSS | 0 DSS | 2.3 DSS | 1.7 DSS
NCC(=O)Nc1ccc(-n2nc(C(F)(F)F)cc2-c2ccc3c(ccc4ccccc43)c2)cc1 | 8 DSS | 7.3 DSS | 5 DSS | 8.7 DSS
NC[C@@](O)(c1ccc(Cl)cc1)c1ccc(-c2cn[nH]c2)cc1 | 7.8 DSS | 7.6 DSS | 3 DSS | 6 DSS
Nc1nccc(-c2c(-c3ccc(F)cc3)ncn2C2CCCCC2)n1 | 0 DSS | 0 DSS | 0 DSS | 0 DSS
Nc1ncnc2c1c(COc1cccc(Cl)c1)nn2C1CCOCC1 | 0 DSS | 0 DSS | 0 DSS | 1.2 DSS
O=C(NC[C@H](O)CN1CCc2ccccc2C1)c1cc(NC2COC2)ncn1 | 0 DSS | 0 DSS | 0.5 DSS | 1.8 DSS
O=C(NOCC1CC1)c1ccc(F)c(F)c1Nc1ccc(I)cc1Cl | 6.2 DSS | 8.5 DSS | 1.8 DSS | 7.7 DSS
O=C(NOC[C@H](O)CO)c1ccc(F)c(F)c1Nc1ccc(I)cc1F | 2 DSS | 4.7 DSS | 0 DSS | 9.8 DSS
O=C(O)c1ccc(-c2c[nH]c3ncc(-c4ccccc4)cc23)cc1C1CCCC1 | 0 DSS | 0 DSS | 0 DSS | 0 DSS
O=C(O)c1ccc(CN2CCC(CN[C@@H]3C[C@H]3c3ccccc3)CC2)cc1 | 0 DSS | 0 DSS | 0 DSS | 0 DSS

Structure (SMILES) | drug sensitivity score (MDA-MB-231 [1]; shRNA: shPPFIA1_1) | drug sensitivity score (MDA-MB-231 [1]; shRNA: shScramble) | drug sensitivity score (MDA-MB-231 [2]; shRNA: shPPFIA1_1) | drug sensitivity score (MDA-MB-231 [2]; shRNA: shScramble)
O=C1NC(=O)/C(=C/c2ccc3nccc(-c4ccncc4)c3c2)S1 | 0 DSS | 0 DSS | 0 DSS | 4.3 DSS
O=c1[nH]c(C2CCCN2)nc2c1oc1ccc(Cl)cc12 (configuration not stated) | 0 DSS | 0 DSS | 0 DSS | 0 DSS
O=c1cc(N2CCOCC2)oc2c(-c3ccccc3)cccc12 | 0.1 DSS | 2.4 DSS | 1.7 DSS | 0 DSS
OCCn1cc(-c2cnc3nnn(Cc4ccc5ncccc5c4)c3n2)cn1 | 0 DSS | 0 DSS | 0.9 DSS | 0 DSS
Oc1c2ccccc2c2c3c(cccc13)N=N2 | 0 DSS | 0 DSS | 0 DSS | 0.5 DSS
COc1ccc(C[C@H](NC(=O)[C@H](C)NC(=O)CN2CCOCC2)C(=O)N[C@@H](Cc2ccccc2)C(=O)C2(C)CO2)cc1 (stereo in doubt) [ONX-0914] | 19.1 DSS | 18.6 DSS | 17.1 DSS | 18.1 DSS
Cn1cc(C[C@@H](N)C(=O)O)c2ccccc21 [1-methyl-D-tryptophan] | 0 DSS | 0 DSS | 0 DSS | 0.9 DSS
COc1cc2c(cc1O)CC[C@@H]1[C@@H]2CC[C@]2(C)[C@@H](O)CC[C@@H]12 [2-methoxyestradiol] | 0 DSS | 0.3 DSS | 0.7 DSS | 2.9 DSS
CC/C(=C(\c1ccc(O)cc1)c1ccc(OCCN(C)C)cc1)c1ccccc1 [4-hydroxytamoxifen] | 2.2 DSS | 3.3 DSS | 2.7 DSS | 4.8 DSS
Nc1ncnc2c1nc(N)n2[C@@H]1O[C@H](CO)[C@@H](O)[C@H]1O [8-amino-adenosine] | 12.2 DSS | 13.8 DSS | 18.1 DSS | 22.8 DSS
Nc1ncnc2c1nc(Cl)n2[C@@H]1O[C@H](CO)[C@@H](O)[C@H]1O [8-chloro-adenosine] | 0.9 DSS | 0 DSS | 1.3 DSS | 10.6 DSS
CCCCC/C=C/C=C1/C(=O)C=C[C@@H]1C/C=C\CCCC(=O)O [15D-PGJ2] | 0 DSS | 0 DSS | 0 DSS | 0 DSS
COc1cc(O)c2c(c1)/C=C/C[C@H](O)[C@H](O)C(=O)/C=C\C[C@H](C)OC2=O [(5Z)-7-Oxozeaenol] | 0.4 DSS | 2.7 DSS | 0 DSS | 2.1 DSS
COc1ccc(S(=O)(=O)Nc2cccnc2Nc2ccc(O)cc2)cc1 [ABT-751] | 2.1 DSS | 0.1 DSS | 0 DSS | 4.5 DSS
Cc1ccccc1C(C(=O)NC1CCCCC1)N(C(=O)Cn1ccnc1C)c1cccc(F)c1 (configuration not stated) [AGI-5198] | 0 DSS | 0 DSS | 0 DSS | 0 DSS
O=C(Nc1cccc(C(F)(F)F)c1)Nc1cc(S(=O)(=O)NC2CC2)ccc1-c1ccsc1 [AGI-6780] | 0.5 DSS | 0 DSS | 0 DSS | 0 DSS
COc1ccc2c(OCc3nnc4ccc(-c5ccccc5)nn34)ccnc2c1 [AMG-208] | 0 DSS | 0 DSS | 1.9 DSS | 8.6 DSS
CC(C)[C@@H](CS(=O)(=O)C(C)C)N1C(=O)[C@@](C)(CC(=O)O)C[C@H](c2cccc(Cl)c2)[C@H]1c1ccc(Cl)cc1 [AMG-232] | 12.7 DSS | 0 DSS | 0 DSS | 0 DSS
Cc1csc(-c2nnc(Nc3ccc(Oc4ncccc4-c4ccnc(N)n4)cc3)c3ccccc23)c1 [AMG-900] | 0 DSS | 0 DSS | 0 DSS | 0.3 DSS
CC1CCC(n2c3cnccc3c3cnc(Nc4ccc5c(n4)CCN(C(=O)CO)C5)nc32)CC1 (configuration not stated) [AMG-925] | 0 DSS | 0 DSS | 0 DSS | 0 DSS
COCC1(CO)C(=O)C2CCN1CC2 (configuration not stated) [APR-246] | 0 DSS | 0 DSS | 1.3 DSS | 0 DSS
Cc1ccc(C(=O)Nc2ccc(CN3CCN(C)CC3)c(C(F)(F)F)c2)cc1C#Cc1cnc2cccnn12 [Ponatinib] | – | – | 0.1 DSS | 3.6 DSS
CCC(C)(C)C(=O)O[C@H]1C[C@@H](C)C=C2C=C[C@H](C)[C@H](CC[C@@H]3C[C@@H](O)CC(=O)O3)[C@H]21 [Simvastatin] | – | – | 0 DSS | 2.8 DSS
